In patent US10239832B2, “N-(1-hydroxy-3-(pyrrolidinyl)propan-2-yl)pyrrolidine-3-carboxamide derivatives as glucosylceramide synthase inhibitors” (BIOMARIN PHARMACEUTICAL INC., priority 2013, dated 2019):

Target: T1, GCS (Canis lupus familiaris, UniProt A0A8I3MXG6)
T1 construct: endogenous in cells; host or cells: MDCK (Madin-Darby canine kidney) cells, whole-cell lysate
T1 sequence (A0A8I3MXG6 1-394): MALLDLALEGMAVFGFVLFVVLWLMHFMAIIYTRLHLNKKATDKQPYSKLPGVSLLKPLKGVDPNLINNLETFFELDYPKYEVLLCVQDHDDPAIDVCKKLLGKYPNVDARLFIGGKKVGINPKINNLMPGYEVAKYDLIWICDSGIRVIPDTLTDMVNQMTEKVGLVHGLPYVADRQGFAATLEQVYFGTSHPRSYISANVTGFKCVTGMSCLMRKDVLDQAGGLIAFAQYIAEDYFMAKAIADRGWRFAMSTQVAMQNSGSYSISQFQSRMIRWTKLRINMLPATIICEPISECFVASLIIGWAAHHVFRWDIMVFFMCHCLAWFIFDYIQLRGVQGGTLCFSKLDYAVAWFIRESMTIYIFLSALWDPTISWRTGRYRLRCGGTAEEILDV
Assay: GCS enzymatic assay (MDCK cell lysate, NBD-ceramide to glucosylceramide, LC/MS)
Type: biochemical, canine
Conditions: Table 2, the table does not say which of the assays; for IC50: class symbols A, B, C, read-out: Data Range (IC50 values); for Data Range (% inhibition): class symbols D, E, F, NA (not active)
Method in brief: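 IC50 or percent inhibition came from LC/MS/MS (ESI+, MRM) of NBD-ceramide and glucosylceramide, with tolbutamide as internal standard. The reaction used MDCK (canine) cell lysate as the enzyme source and was ended with acetonitrile. Mock wells received 0.1% DMSO.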

With O=C(N[C@H](CN1CCCC1)[C@H](O)c1ccc(OC2CC2)c(Cl)c1)[C@@H]1CCN(c2cccc(-c3ccc(F)cc3)n2)C1 [Compound 126, (R)-N-((1R,2R)-1-(3-chloro-4-cyclopropoxyphenyl)-1-hydroxy-3-(pyrrolidin-1-yl)propan-2-yl)-1-(6-(4-fluorophenyl)pyridin-2-yl)pyrrolidine-3-carboxamide] the IC50 was 1 to 30 nM.

In the case of Cn1ncc2cc(N3CC[C@@H](C(=O)N[C@H](CN4CCCC4)[C@H](O)c4ccc(OC5CC5)c(Cl)c4)C3)ccc21 [Compound 127, (R)-N-((1R,2R)-1-(3-chloro-4-cyclopropoxyphenyl)-1-hydroxy-3-(pyrrolidin-1-yl)propan-2-yl)-1-(1-methyl-1H-indazol-5-yl)pyrrolidine-3-carboxamide], the “Data Range (% inhibition)” value is reported as “E (50-74% (or less than 75%))”.

O=C(N[C@H](CN1CCCC1)[C@H](O)c1ccc(OC2CC2)c(Cl)c1)[C@@H]1CCN(c2ccc(Cl)c(Oc3ccc(F)cc3)c2)C1 [Compound 128, (R)-1-(4-chloro-3-(4-fluorophenoxy)phenyl)-N-((1R,2R)-1-(3-chloro-4-cyclopropoxyphenyl)-1-hydroxy-3-(pyrrolidin-1-yl)propan-2-yl)pyrrolidine-3-carboxamide] showed an IC50 of 1 to 30 nM.

For O=C(N[C@H](CN1CCCC1)[C@H](O)c1ccc(OC2CC2)c(Cl)c1)[C@@H]1CCN(C(=O)c2ccccc2)C1 [Compound 129, (R)-1-benzoyl-N-((1R,2R)-1-(3-chloro-4-cyclopropoxyphenyl)-1-hydroxy-3-(pyrrolidin-1-yl)propan-2-yl)pyrrolidine-3-carboxamide], the “Data Range (% inhibition)” value was “F (1-49% (or less than 50%))”.

With O=C(N[C@H](CN1CCCC1)[C@H](O)c1ccc2c(c1F)OCCO2)[C@@H]1CCN(c2ccc(Cl)cc2)C1 [Compound 130, (R)-1-(4-chlorophenyl)-N-((1R,2R)-1-(5-fluoro-2,3-dihydrobenzo[b][1,4]dioxin-6-yl)-1-hydroxy-3-(pyrrolidin-1-yl)propan-2-yl)pyrrolidine-3-carboxamide] the “Data Range (% inhibition)” value was “E (50-74% (or less than 75%))”.

With Cc1cccc(Oc2cc(N3CC[C@@H](C(=O)N[C@H](CN4CCCC4)[C@H](O)c4ccc(OC5CC5)c(Cl)c4)C3)ccc2Cl)n1 [Compound 131, (R)-1-(4-chloro-3-((6-methylpyridin-2-yl)oxy)phenyl)-N-((1R,2R)-1-(3-chloro-4-cyclopropoxyphenyl)-1-hydroxy-3-(pyrrolidin-1-yl)propan-2-yl)pyrrolidine-3-carboxamide] the IC50 was 1 to 30 nM.

For Cn1ncc2ccc(N3CC[C@@H](C(=O)N[C@H](CN4CCCC4)[C@H](O)c4cc(F)c5c(c4)OCCO5)C3)cc21 [Compound 132, (R)-N-((1R,2R)-1-(8-fluoro-2,3-dihydrobenzo[b][1,4]dioxin-6-yl)-1-hydroxy-3-(pyrrolidin-1-yl)propan-2-yl)-1-(1-methyl-1H-indazol-6-yl)pyrrolidine-3-carboxamide], the IC50 was 1 to 30 nM.

With Cn1ncc2ccc(N3CC[C@@H](C(=O)N[C@H](CN4CCCC4)[C@H](O)c4ccc(OC5CC5)c(Cl)c4)C3)cc21 [Compound 133, (R)-N-((1R,2R)-1-(3-chloro-4-cyclopropoxyphenyl)-1-hydroxy-3-(pyrrolidin-1-yl)propan-2-yl)-1-(1-methyl-1H-indazol-6-yl)pyrrolidine-3-carboxamide] the IC50 was 1 to 30 nM.

In the case of Cn1ncc2ccc(N3CC[C@@H](C(=O)N[C@H](CN4CCC4)[C@H](O)c4cc(F)c5c(c4)OCCO5)C3)cc21 [Compound 134, (R)-N-((1R,2R)-3-(azetidin-1-yl)-1-(8-fluoro-2,3-dihydrobenzo[b][1,4]dioxin-6-yl)-1-hydroxypropan-2-yl)-1-(1-methyl-1H-indazol-6-yl)pyrrolidine-3-carboxamide], the IC50 is reported as 1 to 30 nM.

For CC(C)(C)Oc1ccc([C@@H](O)[C@@H](CN2CCCC2)NC(=O)[C@@H]2CCN(c3ccc(Cl)cc3)C2)cc1Cl [Compound 135, (R)-N-((1R,2R)-1-(4-(tert-butoxy)-3-chlorophenyl)-1-hydroxy-3-(pyrrolidin-1-yl)propan-2-yl)-1-(4-chlorophenyl)pyrrolidine-3-carboxamide], the IC50 was 1 to 30 nM.

O=C(N[C@H](CN1CCCC1)[C@H](O)c1ccc(OC2CC2)c(Cl)c1)[C@@H]1CCN(c2ccc(Cl)c(OC3CCCCC3)c2)C1 [Compound 136, (R)-1-(4-chloro-3-(cyclohexyloxy)phenyl)-N-((1R,2R)-1-(3-chloro-4-cyclopropoxyphenyl)-1-hydroxy-3-(pyrrolidin-1-yl)propan-2-yl)pyrrolidine-3-carboxamide] showed an IC50 of 1 to 30 nM.

O=C(N[C@H](CN1CCCC1)[C@H](O)c1cc2c(c(C(F)(F)F)c1)OCCO2)[C@@H]1CCN(c2ccc(Cl)cc2)C1 [Compound 137, (R)-1-(4-chlorophenyl)-N-((1R,2R)-1-hydroxy-3-(pyrrolidin-1-yl)-1-(8-(trifluoromethyl)-2,3-dihydrobenzo[b][1,4]dioxin-6-yl)propan-2-yl)pyrrolidine-3-carboxamide] showed an IC50 of 30 to 100 nM.

Compound O=C(N[C@H](CN1CCCC1)[C@H](O)c1ccc(OC2CC2)c(Cl)c1)[C@@H]1CCN(c2ccc(Cl)c(-c3ccc(F)cc3)c2)C1 [Compound 138, (R)-1-(6-chloro-4′-fluoro-[1,1′-biphenyl]-3-yl)-N-((1R,2R)-1-(3-chloro-4-cyclopropoxyphenyl)-1-hydroxy-3-(pyrrolidin-1-yl)propan-2-yl)pyrrolidine-3-carboxamide] has an IC50 of 30 to 100 nM.

In the case of CC(C)(C)c1ccc(N2CC[C@@H](C(=O)N[C@H](CN3CCCC3)[C@H](O)c3ccc(OC4CC4)c(Cl)c3)C2)cc1 [Compound 139, (R)-1-(4-(tert-butyl)phenyl)-N-((1R,2R)-1-(3-chloro-4-cyclopropoxyphenyl)-1-hydroxy-3-(pyrrolidin-1-yl)propan-2-yl)pyrrolidine-3-carboxamide], the IC50 is reported as 30 to 100 nM.

O=C(N[C@H](CN1CCCC1)[C@H](O)c1ccc(OC2CCC2)c(Cl)c1)[C@@H]1CCN(c2ccc(Cl)cc2)C1 [Compound 140, (R)-N-((1R,2R)-1-(3-chloro-4-cyclobutoxyphenyl)-1-hydroxy-3-(pyrrolidin-1-yl)propan-2-yl)-1-(4-chlorophenyl)pyrrolidine-3-carboxamide] was tested, and the IC50 was 1 to 30 nM.

O=C(N[C@H](CN1CCCC1)[C@H](O)c1ccc(OC2CCCC2)c(Cl)c1)[C@@H]1CCN(c2ccc(Cl)cc2)C1 [Compound 141, (R)-N-((1R,2R)-1-(3-chloro-4-(cyclopentyloxy)phenyl)-1-hydroxy-3-(pyrrolidin-1-yl)propan-2-yl)-1-(4-chlorophenyl)pyrrolidine-3-carboxamide] was tested, and the IC50 was 30 to 100 nM.

CC(C)(C)c1ccc(N2CC[C@@H](C(=O)N[C@H](CN3CCCC3)[C@H](O)c3cc(F)c4c(c3)OCCO4)C2)cc1 [Compound 142, (R)-1-(4-(tert-butyl)phenyl)-N-((1R,2R)-1-(8-fluoro-2,3-dihydrobenzo[b][1,4]dioxin-6-yl)-1-hydroxy-3-(pyrrolidin-1-yl)propan-2-yl)pyrrolidine-3-carboxamide] showed an IC50 of 30 to 100 nM.

Compound O=C(N[C@H](CN1CCCC1)[C@H](O)c1ccc2c(c1)OC=CO2)[C@@H]1CCN(c2ccc(Cl)cc2)C1 [Compound 143, (R)-N-((1R,2R)-1-(benzo[b][1,4]dioxin-6-yl)-1-hydroxy-3-(pyrrolidin-1-yl)propan-2-yl)-1-(4-chlorophenyl)pyrrolidine-3-carboxamide] has an IC50 of 1 to 30 nM.

O=C(N[C@H](CN1CCCC1)[C@H](O)c1cc(F)c2c(c1)OCCO2)[C@@H]1CCN(c2ccc(Cl)c(-c3ccc(F)cc3)n2)C1 [Compound 144, (R)-1-(5-chloro-6-(4-fluorophenyl)pyridin-2-yl)-N((1R,2R)-1-(8-fluoro-2,3-dihydrobenzo[b][1,4]dioxin-6-yl)-1-hydroxy-3-(pyrrolidin-1-yl)propan-2-yl)pyrrolidine-3-carboxamide] gave an IC50 of 1 to 30 nM.

Work on O=C(N[C@H](CN1CCCC1)[C@H](O)c1ccc(SC2CC2)c(Cl)c1)[C@@H]1CCN(c2ccc(Cl)cc2)C1 [Compound 145, (R)-N-((1R,2R)-1-(3-chloro-4-(cyclopropylthio)phenyl)-1-hydroxy-3-(pyrrolidin-1-yl)propan-2-yl)-1-(4-chlorophenyl)pyrrolidine-3-carboxamide] yielded an IC50 of 1 to 30 nM.

O=C(N[C@H](CN1CCCC1)[C@H](O)c1ccc(OC2CC2)c(Cl)c1)[C@@H]1CCN(c2ccc(Cl)c(-c3ccc(F)cc3)n2)C1 [Compound 146, (R)-N-((1R,2R)-1-(3-chloro-4-cyclopropoxyphenyl)-1-hydroxy-3-(pyrrolidin-1-yl)propan-2-yl)-1-(5-chloro-6-(4-fluorophenyl)pyridin-2-yl)pyrrolidine-3-carboxamide] was tested, and the IC50 was 1 to 30 nM.

Compound C=COc1ccc([C@@H](O)[C@@H](CN2CCCC2)NC(=O)[C@@H]2CCN(c3ccc(Cl)cc3)C2)cc1Cl [Compound 147, (R)-N-((1R,2R)-1-(3-chloro-4-(vinyloxy)phenyl)-1-hydroxy-3-(pyrrolidin-1-yl)propan-2-yl)-1-(4-chlorophenyl)pyrrolidine-3-carboxamide] has an IC50 of 1 to 30 nM.

O=C(N[C@H](CN1CCCC1)[C@H](O)c1ccc(OC2CC2)cc1)[C@@H]1CCN(c2ccc(F)cc2)C1 [Compound 148, (R)-N-((1R,2R)-1-(4-cyclopropoxyphenyl)-1-hydroxy-3-(pyrrolidin-1-yl)propan-2-yl)-1-(4-fluorophenyl)pyrrolidine-3-carboxamide] gave an IC50 of 1 to 30 nM.
